Experimental data as given in PubChem BioAssay AID1918937 (Molecular Pharmacology Branch, DTP, NCI, 2023).
pIC50: −log10 of the molar value.

Tested on: 521955-158-R2-J5-PDC complex spheroid viability
Test: Anticancer human tumor 521955-158-R2-J5-PDC patient-derived pancreatic carcinoma cell line growth inhibition
Details: for pIC50: curve of first compound; for viability, T/C: stronger effect = lower value
From the text: Multicellular complex tumor spheroid response to LSD1 Inhibitor Iadademstat in combination with a variety of drugs and investigational agents in selected tumor cell lines
The current study was undertaken to assess response to LSD1 inhibitors in combination with standard-of-care drugs and investigational agents in solid tumor complex spheroid models as well as in the K-562 leukemia. Complex spheroids include a stromal component modeled by human endothelial cells (HUVEC) and fibroblasts modeled by human mesenchymal stem cells (MSCs). The concentration ranges selected for each drug and investigational agent were based upon clinically achievable concentrations if the clinical Cmax of the agent was known.
Compounds. The drugs and investigational agents used in this study are listed on Table 1. All of the agents used, including staurosporine (NSC755774) and gemcitabine (NSC613327), were obtained from the Developmental Therapeutics Program, NCI. FDA-approved anticancer drugs are available from the NCI at http://dtp.nci.nih.gov/branches/dscb/oncology_drugset_explanation.html. Drugs and investigational agents were >95% pure by proton nuclear magnetic resonance (NMR) and liquid chromatography/mass spectrometry (LC/MS). Stock solutions were prepared at 400x in DMSO, stored at -70 degrees C, and diluted in fresh medium prior to their use. The final concentration of DMSO in cell culture wells never exceeded 0.25% (v/v). The FDA-approved anticancer drug set is available from the Developmental Therapeutics Program at https://dtp.cancer.gov/organization/dscb/obtaining/available_plates.htm. All drugs and investigational agents were tested over a range starting from a high concentration at or near the clinical Cmax and decreasing in half-log increments. If the clinical Cmax for an agent had not been determined, the highest concentration tested was 10 microM.
Cell Lines. The patient-derived cancer cell (PDC) lines: 292921-168-R-J2-PDC, K24384-001-R-PDC, and 521955-158-R2-J5-PDC pancreatic carcinomas, 556581-035-R-J1 ovarian carcinoma, 324938-238-R-J1-PDC, 855422-203-R-J1-PDC and 883617-216-R-J1-PDC urothelial bladder carcinomas, 743489-274-T-PDC renal cell carcinoma, 138582-R-J1 Merkel cell tumor, K60290-347-R-J1 and K57222-313-R-J1-PDC glioblastomas, 653999-131-R-J2-PDC, LG0703-F948-PDC, and 349418-098-R-PDC non-small cell lung carcinomas, 885512-296-R-J2-PDC, 171881-019-R-J1-PDC breast carcinomas and 186277-243-T-J2-PDC and 233499-124-R-J2-PDC colon carcinomas were obtained from the NCI Patient-Derived Models Repository (PDMR, https://pdmr.cancer.gov). The established cell lines NCI/ADR-RES (RRID:CVCL_14520 and OVCAR-5 (RRID:CVCL_1628) ovarian carcinomas, 786-O (RRID:CVCL_1051) and A498 (RRID:CVCL_A498) renal cell carcinoma, NCI-H211 (ATCC, cat. CRL-5824; RRID:CVCL_1529), NCI-H196 (ATCC, cat. CRL-5823, RRID:CVCL_1509), SW 1271 (ATCC, cat. CRL-2177, RRID:CVCL_1716) and NCI-H1876 (ATCC, cat. CRL-5902, RRID:CVCL_1503) small cell lung carcinomas, MDA-MB-231 (RRID:CVCL_0062) and MDA-MB-468 (RRID:CVCL_0419)breast carcinomas (10-12). Pooled donor human umbilical vein endothelial cells (HUVEC, Lonza, cat. CC-2519) and human mesenchymal stem cells (hMSC, Lonza, cat. PT-2501) were purchased from Lonza (Walkersville, MD).
Cell Culture. All cells were maintained in an incubator at 37 degrees C and 5% CO2 with 95% humidity. The PDC lines were cultured according to standard operating procedures established by the NCI PDMR (https://pdmr.cancer.gov). Briefly all PDCs were thawed and cultured in Matrigel-coated flasks prepared with a working solution of 1X Ham's F-12 nutrient mix, without supplementation (Invitrogen, Waltham, MA, cat. 11765054), 100 U/mL penicillin-streptomycin (Invitrogen, cat. 15140122), and 2.5% Matrigel (Corning Inc., Corning, NY, cat. 354248) for the first three passages. […]
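Note: spheroids exposed to agents for seven days.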
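Throughout, for viability, T/C: percent of DMSO vehicle control luminescence viability.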

CC[C@@]1(O)C(=O)OCc2c1cc1n(c2=O)Cc2cc3c(CN(C)C)c(O)ccc3nc2-1 + NC1CC1c1ccc(-c2cccc(O)c2)cc1
pIC50 (second compound 0.1 µM): 8.22 | pIC50 (second compound 0.316 µM): 8.18 | pIC50 (second compound 1 µM): 8.21 | pIC50 (second compound 3.16 µM): 8.21 | pIC50 (second compound 10 µM): 8.20 | viability, T/C (second compound 0.1 µM, first compound 0.000316 µM): 97.3% | viability, T/C (second compound 0.1 µM, first compound 0.001 µM): 106% | viability, T/C (second compound 0.1 µM, first compound 0.00316 µM): 77.3% | viability, T/C (second compound 0.1 µM, first compound 0.01 µM): 28.3% | viability, T/C (second compound 0.1 µM, first compound 0.0316 µM): 15.6% | viability, T/C (second compound 0.1 µM, first compound 0.1 µM): 11.7% | viability, T/C (second compound 0.316 µM, first compound 0.000316 µM): 94.8% | viability, T/C (second compound 0.316 µM, first compound 0.001 µM): 94.9% | viability, T/C (second compound 0.316 µM, first compound 0.00316 µM): 80.5% | viability, T/C (second compound 0.316 µM, first compound 0.01 µM): 33.1% | viability, T/C (second compound 0.316 µM, first compound 0.0316 µM): 14.6% | viability, T/C (second compound 0.316 µM, first compound 0.1 µM): 13.1% | viability, T/C (second compound 1 µM, first compound 0.000316 µM): 80.2% | viability, T/C (second compound 1 µM, first compound 0.001 µM): 93.3% | viability, T/C (second compound 1 µM, first compound 0.00316 µM): 78.2% | viability, T/C (second compound 1 µM, first compound 0.01 µM): 29.1% | viability, T/C (second compound 1 µM, first compound 0.0316 µM): 16.4% | viability, T/C (second compound 1 µM, first compound 0.1 µM): 12.7% | viability, T/C (second compound 3.16 µM, first compound 0.000316 µM): 83% | viability, T/C (second compound 3.16 µM, first compound 0.001 µM): 86.8% | viability, T/C (second compound 3.16 µM, first compound 0.00316 µM): 71.9% | viability, T/C (second compound 3.16 µM, first compound 0.01 µM): 33.8% | viability, T/C (second compound 3.16 µM, first compound 0.0316 µM): 18.5% | viability, T/C (second compound 3.16 µM, first compound 0.1 µM): 12.2% | viability, T/C (second compound 10 µM, first compound 0.000316 µM): 103% | viability, T/C (second compound 10 µM, first compound 0.001 µM): 92.3% | viability, T/C (second compound 10 µM, first compound 0.00316 µM): 68.7% | viability, T/C (second compound 10 µM, first compound 0.01 µM): 37.7% | viability, T/C (second compound 10 µM, first compound 0.0316 µM): 21.1% | viability, T/C (second compound 10 µM, first compound 0.1 µM): 19.7%

COc1cc(C2c3cc4c(cc3C(OC3OC5COC(C)OC5C(O)C3O)C3COC(=O)C23)OCO4)cc(OC)c1O (stereo not given) + NC1CC1c1ccc(-c2cccc(O)c2)cc1
pIC50 (second compound 0.1 µM): 6.70 | pIC50 (second compound 0.316 µM): 6.64 | pIC50 (second compound 1 µM): 6.60 | pIC50 (second compound 3.16 µM): 6.74 | pIC50 (second compound 10 µM): 6.58 | viability, T/C (second compound 0.1 µM, first compound 0.00949 µM): 86.6% | viability, T/C (second compound 0.1 µM, first compound 0.03 µM): 94.8% | viability, T/C (second compound 0.1 µM, first compound 0.0949 µM): 66.2% | viability, T/C (second compound 0.1 µM, first compound 0.3 µM): 39.9% | viability, T/C (second compound 0.1 µM, first compound 0.949 µM): 23% | viability, T/C (second compound 0.1 µM, first compound 3 µM): 15.3% | viability, T/C (second compound 0.316 µM, first compound 0.00949 µM): 87.3% | viability, T/C (second compound 0.316 µM, first compound 0.03 µM): 83.6% | viability, T/C (second compound 0.316 µM, first compound 0.0949 µM): 66.3% | viability, T/C (second compound 0.316 µM, first compound 0.3 µM): 44.6% | viability, T/C (second compound 0.316 µM, first compound 0.949 µM): 27.8% | viability, T/C (second compound 0.316 µM, first compound 3 µM): 19.2% | viability, T/C (second compound 1 µM, first compound 0.00949 µM): 84.2% | viability, T/C (second compound 1 µM, first compound 0.03 µM): 87.2% | viability, T/C (second compound 1 µM, first compound 0.0949 µM): 64% | viability, T/C (second compound 1 µM, first compound 0.3 µM): 47.1% | viability, T/C (second compound 1 µM, first compound 0.949 µM): 30.9% | viability, T/C (second compound 1 µM, first compound 3 µM): 20.2% | viability, T/C (second compound 3.16 µM, first compound 0.00949 µM): 89.4% | viability, T/C (second compound 3.16 µM, first compound 0.03 µM): 88.5% | viability, T/C (second compound 3.16 µM, first compound 0.0949 µM): 53.8% | viability, T/C (second compound 3.16 µM, first compound 0.3 µM): 44.4% | viability, T/C (second compound 3.16 µM, first compound 0.949 µM): 30.3% | viability, T/C (second compound 3.16 µM, first compound 3 µM): 19.8% | viability, T/C (second compound 10 µM, first compound 0.00949 µM): 95.9% | viability, T/C (second compound 10 µM, first compound 0.03 µM): 83.6% | viability, T/C (second compound 10 µM, first compound 0.0949 µM): 67.5% | viability, T/C (second compound 10 µM, first compound 0.3 µM): 49.8% | viability, T/C (second compound 10 µM, first compound 0.949 µM): 30.6% | viability, T/C (second compound 10 µM, first compound 3 µM): 27%
